Patent US5162347A, “Piperidine derivatives and therapeutic and preventive agents for arrhythmia containing same” (Eisai Co., Ltd., priority 1987, dated 1992)

Columns and labels:
[1] = system: isolated myocardium of guinea-pigs (right ventricular papillary muscles); experiment: Effects on the action potential duration in the isolated myocardium of guinea-pigs; type: cell-based, guinea-pigs (male, Hartley strain); conditions: Cavia porcellus, 10 min, stimulated at 1 Hz, 37° C.; for APD90 prolongation (%) at 10 µM / inhibition at 10 µM: 10^-5 M, another 10 min; for inhibition at 10 µM / inhibition at 1 µM: read-out: Vmax inhibition (%); for APD90 prolongation (%) at 1 µM / inhibition at 1 µM: 10^-6 M, first 10 min
Method: Right ventricular papillary muscles were isolated from male guinea-pigs of Hartley strain weighing 300 to 400 g and fixed at the bottom of an acrylic bath with pins. They were perfused with Tyrode solution kept at 37° C. and saturated with a mixture of 95% O2 and 5% CO2. The muscles were stimulated at 1 Hz with rectangular pulses of 1 msec duration and supramaximal voltage. Action potentials were recorded using conventional glass microelectrodes filled with 3M KCl. The duration of the action potential and the maximum velocity of the upstroke of the action potential (Vmax) were determined. Each of the test compounds was included in Tyrode solution at 10^-6 or 10^-5 M and perfused.
The test compounds shown in Example 1 were as follows. Sotalol, a beta-adrenoceptor antagonist was employed as the reference drug because this compound is known to prolong the duration of the myocardial action potential.
Results are shown below in terms of APD90 prolongation (%) and Vmax inhibition (%).

[2] = Acute toxicity test, intravenous injection in mice; conditions: mouse, in vivo, male ddy mice weighing 20 to 30 g
Method: Acute toxicity tests of typical compounds (the above-mentioned compounds A and B) of the present invention were conducted by applying them to male ddy mice weighing 20 to 30 g by intravenous injection.
Acute toxicity tests of typical compounds (the above-mentioned compounds A to E) of the present invention were conducted by applying them to male ddy mice weighing 20 to 30 g by intravenous injection.

CC(C)NCC(O)c1ccc(NS(C)(=O)=O)cc1 (centres unmarked) [Sotalol, reference compound]
APD90 prolongation (%) at 10 µM [1]: 7%
inhibition at 10 µM [1]: 0%
APD90 prolongation (%) at 1 µM [1]: 0%
inhibition at 1 µM [1]: 0%

CS(=O)(=O)Nc1ccc(SC2CCN(CCc3cccnc3)CC2)cc1 [compound (1) A]
APD90 prolongation (%) at 10 µM [1]: 20%
inhibition at 10 µM [1]: 0%
APD90 prolongation (%) at 1 µM [1]: 11%
inhibition at 1 µM [1]: 0%
LD50 [2]: 180 to 400 mg/kg

CS(=O)(=O)Nc1ccc([S+]([O-])C2CCN(CCc3cccnc3)CC2)cc1 (centres unmarked) [compound (1) B]
APD90 prolongation (%) at 10 µM [1]: 40%
inhibition at 10 µM [1]: 0%
APD90 prolongation (%) at 1 µM [1]: 14%
inhibition at 1 µM [1]: 0%
LD50 [2]: 180 to 400 mg/kg

Cc1cccc(CCN(C)CC(=O)c2ccc(NS(C)(=O)=O)cc2)n1 [compound (2) A]
APD90 prolongation (%) at 10 µM [1]: 16%
inhibition at 10 µM [1]: 0%
APD90 prolongation (%) at 1 µM [1]: 12%
inhibition at 1 µM [1]: 0%

Cc1cccc(CCN(C)CCC(=O)c2ccc(NS(C)(=O)=O)cc2)n1 [compound (2) B]
APD90 prolongation (%) at 10 µM [1]: 19%
inhibition at 10 µM [1]: 0%
APD90 prolongation (%) at 1 µM [1]: 18%
inhibition at 1 µM [1]: 0%

Cc1cccc(CCN(C)CCCC(=O)c2ccc(NS(C)(=O)=O)cc2)n1 [compound (2) C]
APD90 prolongation (%) at 10 µM [1]: 31%
inhibition at 10 µM [1]: 0%
APD90 prolongation (%) at 1 µM [1]: 17%
inhibition at 1 µM [1]: 0%

CCN(CCCC(=O)c1ccc(NS(C)(=O)=O)cc1)CCc1cccc(C)n1 [compound (2) D]
APD90 prolongation (%) at 10 µM [1]: 31%
inhibition at 10 µM [1]: 0%
APD90 prolongation (%) at 1 µM [1]: 17%
inhibition at 1 µM [1]: 0%

Cc1cccc(CCN(C)CCCCC(=O)c2ccc(NS(C)(=O)=O)cc2)n1 [compound (2) E]
APD90 prolongation (%) at 10 µM [1]: 27%
inhibition at 10 µM [1]: 0%
APD90 prolongation (%) at 1 µM [1]: 14%
inhibition at 1 µM [1]: 0%

CS(=O)(=O)Nc1ccc(C(CO)N2CCC(C(=O)c3ccc(F)cc3)CC2)cc1 (centres unmarked) [compound (3) A]
APD90 prolongation (%) at 10 µM [1]: 25%
inhibition at 10 µM [1]: 0%
APD90 prolongation (%) at 1 µM [1]: 16%
inhibition at 1 µM [1]: 0%
LD50 [2]: 180 to 400 mg/kg

CS(=O)(=O)Nc1ccc(C(CO)N2CCC(C(=O)c3ccc(Cl)cc3)CC2)cc1 (centres unmarked) [compound (3) B]
APD90 prolongation (%) at 10 µM [1]: 11%
inhibition at 10 µM [1]: 0%
APD90 prolongation (%) at 1 µM [1]: 13%
inhibition at 1 µM [1]: 0%
LD50 [2]: 180 to 400 mg/kg
